The values that follow come from patent US9290427B2, “Anti-invasive compounds” (Universiteit Gent, priority 2012, dated 2016).

Each structure is given as a SMILES string.

Data set [1] relates to TR146 cells. Kind of data set: SRB test, TR146. It is filed as cell-based, human. Conditions: 1 or 10 μmol·L−1, 24 h. As to the method: (§1) The SRB assay is used to evaluate growth effects on cells, and measures the total protein content. In this test, 5,000 cells are seeded in a cup of a 96-well plate. Upon a 24 h-attachment period, cells are treated with a certain amount of the test molecule (dissolved in DMSO). After a pre-chosen incubation time, cells are fixed with 50 μL of 50% trichloroacetic acid (2° C., 1 h). Afterward, the plate is rinsed five times with tap water, and air dried overnight.
(§2) Next, proteins are stained with 75 μL of a 0.4% solution of SRB in AcOH (30 min). Unbound SRB is subsequently removed by washing with a 1% solution of glacial AcOH, whereupon the plate is air dried. Then, bound SRB is redissolved in 100 μL of a 10 mmol·L^−1 tris(hydroxymethyl)aminomethane (Tris) buffer (pH=10.5), after which optical density is determined at 490 nm with a spectrophotometer.
(§3) In order to verify whether the antiproliferative effects of compound 49, witnessed in BLM and MCF-7/6 cells at high concentrations, were cell specific, additional SRB and MTT assays on a further five cell lines (HCT8-E11, TR146, FaDu, 3T3-L1 and CT5.3) were conducted (FIG. 8). The results for MCF-7/6 cells were added to facilitate comparison.
The CT5.3 cell line consists of human myofibroblasts which were isolated from a colon tumor (Van Hoorde et al., 1999). […]
For orientation: The SRB assay estimates cell density from bound dye.

A further data set deals with MCF-7/LucF5 cells. Kind of data set: SRB test, MCF-7/LucF5. The class given is cell-based, human. The protocol:
as §1, §2
In order to further validate the use of the MCF-7/LucF5 cells in our in vivo experiments, the effects of 4-fluoro-3′,4′,5′-trimethoxychalcone on this cell line in the MTT and SRB assays were determined as well (Van Hoorde L. et al., 1999).

In data set [2] the test system is TR146 cells. Kind of data set: MTT test, TR146. It is filed as cell-based, human. The protocol:
(§4) An MTT test provides an indication of cell viability, proliferation and activity through determination of the mitochondrial conversion of 3-(4,5-dimethylthiazol-2-yl)-2,5-diphenyltetrazolium bromide (MTT), a yellow salt, into formazan, a salt that precipitates under the form of blue crystals.
(§5) In concreto, 5,000 cells are seeded in a cup of a 96 well-plate, treated with the desired amount of the test substance, and incubated for a chosen period of time. Next, 40 μL of a filtered (0.2 μm) 5 mg·mL^−1 solution of MTT in PBS is added to the cup. After 2 h of incubation at 37° C. in the dark, all liquid is removed. The obtained formazan salts are dissolved in 200 μL of DMSO, whereupon optical density is measured at 490 nm.
as §3
(§6) The CT5.3 cell line consists of human myofibroblasts which were isolated from a colon tumor (Van Hoorde et al., 1999). 3T3-L1 cells are murine fibroblasts, originating from embryo's of Swiss mice (Todaro and Green, 1963). HCT8-E11, FaDu and TR146 are human epithelial cancer cell lines. […]
In general terms: Tetrazolium dyes change colour on reduction, which living cells bring about.

Data set [3] relates to MCF-7/6 mammary carcinoma cell line. Kind of data set: in vivo survival study after intracardial injection of MCF-7/6 cells. Particulars: for # at risk / # deaths / psurv: 10 nmol i.p. thrice a week; for pcum: cumulative probability of survival. Set-up: species or system Swiss nu/nu mice. The protocol: In order to evaluate the in vivo potency of 4-fluoro-3′,4′,5′-trimethoxychalcone 49 against the MCF-7/6 mammary carcinoma cell line, a broadly used metastasis experiment involving intracardial injection of the cancer cells was conducted. One week after subcutaneous implantation of an estrogen pellet (1 mg) in the dorsal region of the neck, […] Swiss nu/nu mice were injected in the left cardiac ventricle with 1.10^5 MCF-7/6 cells under xylazine and ketamine anesthesia (Smith W., 1993).
By virtue of injection into the left cardiac ventricle, cancer cells directly enter systemic arterial circulation, which enhances the chance for colonization (Arguello et al., 1988). […] However, since these metastases are difficultly detectable and quantifiable, survival time was chosen as the sole end point in this study.
Upon inoculation, mice were divided randomly into two equal groups. One cohort was intraperitoneally injected with 10 nmol of 49 thrice a week (160 μg·kg^−1 for a 20 g animal), while the other group only received the vehicle (100 μL of serum-free DMEM containing 1:1000 DMSO).
Twenty 6-week old female Swiss nu/nu mice were given a subcutaneous estrogen implant (1 mg) in the dorsal region of the neck. One week later, intracardial injection of 100,000 MCF-7/6 cells in […] of PBS^D^+ was performed. Animals were anesthesized priorly by i.p. injection of xylazine (5 μL, Rompun®) and ketamine (36 μL, Ketalar®). Intracardial injection was performed with a 30 G needle (½″), which was introduced into the thoracic cavity underneath the sternum. Upon protrusion of the wall of the left ventricle, blood is pumped into the syringe. At this moment, careful injection of the cancer cells can be conducted. Next, mice were randomly divided into a vehicle control and a 49-treated cohort.
From the inoculation date on, mice were treated i.p. three times a week with 100 μL of a 100 μmol·L^−1 solution of 49 in serum-free DMEM containing 1:1000 DMSO, or with vehicle alone (see “preparation procedure”). Survival numbers for both cages were recorded on a daily basis.
“Preparation procedure”: for the 49-treated group, 100 mmol·L^−1 solutions of 49 in DMSO were freshly prepared on each injection day, and diluted 1:1000 with serum-free DMEM so as to obtain injectable solutions of 100 μmol·L^−1 of 49. Control mice were given i.p. injections with 100 μL of the vehicle (1:1000 DMSO in serum-free DMEM).

The subject of the next data set is BLM melanoma cells. Kind of data set: MTT test, BLM. It is filed as cell-based. The protocol: as §4, §5
As 4-fluoro-3′,4′,5′-trimethoxychalcone had exerted an anti-invasive activity on BLM melanoma cells in the Matrigel invasion assay, we were intrigued to verify how its effect on the viability of BLM cells would compare to that observed for the MCF-7 cell lines.

Data set [4] concerns HCT8-E11 colon carcinoma cells. Kind of data set: MTT test, HCT8-E11. It is filed as cell-based, human. The protocol:
as §4, §5, §3, §6

[5] abbreviates: elevated concentrations 10-100 μmol·L−1, summary.

As to `COc1cc(C(=O)/C=C/c2ccc(F)cc2)cc(OC)c1OC` [Compound 49, (2E)-3-(4-Fluorophenyl)-1-(3,4,5-trimethoxyphenyl)propenone], the “total protein content versus solvent control” value in the data set with TR146 cells [1] is given as “no significant differences”. Besides, the cell count result in the data set with MCF-7/LucF5 cells (1 and 0.1 μmol·L−1, 72 h (p=0.0703 and 0.0538)) is listed as “marginally significant reduction”. For the same compound, the total protein content result in the data set on MCF-7/LucF5 cells (100 or 10 μmol·L−1, 72 h (p=0)) was “significant reduction”. Moreover, in the data set with MCF-7/LucF5 cells (setting [5]), the “reduction in total protein content” value is recorded as about 50%. The “increase in mitochondrial activity” value with TR146 cells [2] (1 μmol·L−1, 24 h) came to 7%. Moreover, the “reduction in mitochondrial activity” value with TR146 cells [2] (10 μmol·L−1, 24 h) is given as 30%; in the data set with BLM melanoma cells (10 μmol·L−1, 24 h), 40%; in data set [4] (10 μmol·L−1, 24 h), 40%; in data set [4] (setting [5]), about 50%. Further, the entries for the “# at risk” value in data set [3] (Day 5), in data set [3] (Day 40) and in data set [3] (Day 61) were 10, 9 and 8, respectively. Moreover, the “# deaths” value in data set [3] (Day 5) and in data set [3] (Day 40) was 1 throughout. Further, the psurv in data set [3] (Day 5) amounted to 0.9; in data set [3] (Day 40), 0.89; in data set [3] (Day 61), 1. The pcum in data set [3] (Day 5) is 0.9; in data set [3] (Day 40) it was 0.8; in data set [3] (Day 61) it was 0.8. Besides, the “reduction of BLM cell viability (mitochondrial activity)” value amounted to 22% in the data set on BLM melanoma cells (0.1 μmol·L−1, 24 h); 27% in the data set with BLM melanoma cells (1 μmol·L−1, 24 h); 76% with BLM melanoma cells (100 μmol·L−1, 24 h).
